From patent US20170242015A1, “MAP3K8 AS A MARKER FOR SELECTING A PATIENT AFFECTED WITH AN OVARIAN CANCER FOR A TREATMENT WITH A MEK INHIBITOR” (INSTITUT CURIE, priority 2014, published 2017)

Key:
high-MAP3K8 PDX model [1] = assay: Efficacy study in patient-derived xenograft, high-MAP3K8 PDX model; assay type: in vivo, mouse; settings: for tumor growth inhibition (TGI): per os 5 times a week for 4 weeks, AZD6244 50 mg/kg, MEK162 25 mg/kg; for tumor growth: treated vs untreated
Procedure: (§1) Grafting experiments were performed by subcutaneous injection of 2.7×10^6 exponentially growing SKOV3 stable cell lines into each flank of 6-week-old female Swiss nude mice (at least five mice per group). Patient derived xenograft (PDX) models of EOC tumors were established at the Curie Institute with patient consent (Paris, France). For efficacy studies in PDX models, at least 8 mice per group were treated per os 5 times a week for 4 weeks either left untreated (Ctrl) or treated with the following MEK inhibitors AZD6244 at 50 mg/kg, (Selleckchem #S100817) or MEK162 25 mg/kg (Active Biochem #A-1128) both diluted into 2% DMSO, 10% 2-Hydroxypropyl-beta-cyclodextrin, 5% glucose in PBS. Tumor growth was evaluated by measuring two perpendicular diameters of tumors with a caliper twice a week. Individual tumor volumes were calculated as (V)=a×b2/2, with a being the major diameter, and b the minor one. For each tumor, V was reported to the initial volume as relative tumor volume (RTV). Means (and s.e.m) of RTV in the same treatment group were calculated, and growth curves were established as a function of time. The tumor growth inhibition (TGI) was calculated using the following formula: 100−100×([…]). Curie Institute ethical committee approved all experiments.

low-MAP3K8 PDX model = assay: Efficacy study in patient-derived xenograft, low-MAP3K8 PDX model; assay type: in vivo, mouse; settings: for tumor growth inhibition (TGI): per os 5 times a week for 4 weeks, AZD6244 50 mg/kg, MEK162 25 mg/kg; for tumor growth: treated vs untreated
Procedure: as §1

high-MAP3K8 PDX model [2] = assay: Lung metastasis detection in PDX by RT-qPCR for human Alu sequences; assay type: in vivo, mouse; settings: compared to low-MAP3K8 PDX model
SKOV3 cells [3] = assay: Growth kinetics of SKOV3 cells (living cells counted by trypan blue exclusion); assay type: cell-based, human
Procedure: (§2) The human epithelial ovarian cancer cell line SKOV3 and the SKOV3 stable cell lines were propagated in DMEM (Gibco) supplemented with 10% fetal bovine serum (FBS, PAA), penicillin and streptomycin (Gibco). 1 μg/mL puromycin was added only for SKOV3 stable cell lines. For SKOV3 stable cell lines, 10% serum stimulation was performed after overnight serum starvation for the indicated times. SKOV3 cells were plated and immediately treated or not with 5 μM MAP3K8 kinase inhibitor (KI, Calbiochem #616373) for the indicated times. The number of living cells was measured by trypan blue exclusion using Vi-Cell analyzer (Beckman Coulter). Cell cycle distributions were performed on ethanol-fixed cells, stained with propidium iodide and analyzed by flow cytometry. Flow cytometry data were acquired using CellQuest Pro (Becton Dickinson) software on the FACS LSRII machine (Becton Dickinson) and were analyzed using ModfitLT (Verity) software.

SKOV3 cells [4] = assay: Cell cycle analysis by flow cytometry (propidium iodide); assay type: cell-based, human; settings: KI treatment vs untreated control cells
Procedure: as §2

SKOV3 cells [5] = assay: Transwell migration assay; assay type: cell-based, human; settings: KI treatment, 5 h
Procedure: (§3) 12 wells cell culture insert, and 24 wells Transwell BioCoat™ growth factor reduced Matrigel™ invasion chambers (BD Biosciences, […]) were used for migration and invasion assays, respectively. After overnight serum starvation, cells were plated to the upper side of the Transwell device, at least in duplicates, in serum free medium, while the lower well contained regular 10% FBS culture medium in order to create an FBS gradient. The inventors plated 80,000 cells for migration assay and ended the experiment 5 h later. For invasion assay, the inventors plated 50,000 and stopped the experiment 24 h later. At the end of the experiment, the remaining cells in the upper side of the Transwell device were removed. Migrating and invading cells at the bottom side of the Transwell device were fixed and stained with crystal violet for 30 minutes and then counted in the central field (×2.5 objective, Zeiss Axioplan microscope, AxioCamERc 5s).

SKOV3 cells [6] = assay: Transwell BioCoat Matrigel invasion assay; assay type: cell-based, human; settings: KI treatment, 24 h
Procedure: as §3

MEK = assay: Western blot of serum-induced MEK phosphorylation in SKOV3 cells; assay type: cell-based, human; settings: SKOV3, KI 5 μM or 10 μM 1 h prior to 15 min 10% serum stimulation
Procedure: (§4) After overnight serum starvation (—FBS), SKOV3 cells and SKOV3 stable cell lines were stimulated with 10% serum for 15 minutes (+FBS). SKOV3 cell line was treated or not with 5 μM or 10 μM MAP3K8 kinase inhibitor as indicated (KI_5 μM or KI_10 μM) for 1 h prior to serum stimulation. After treatment, cells were washed once with cold PBS and scraped on ice with lysis buffer (50 mM Tris-HCl pH 7.5, 1 mM EDTA, 1 mM EGTA, 1% triton X-100, 1 mM Na3VO4, 50mMNaF, 0.27M sucrose, 0.1% β-mercaptoethanol) supplemented with EDTA-free protease inhibitor cocktail tablet (Roche #1836170). For immunoprecipitation (IP), 4×10^6 SKOV3 cells were plated into 10 cm petri dish. […] The protein concentration of the supernatant was determined using the Bio-Rad Dc Protein Assay Kit according to the manufacturer's instructions (Bio-Rad Laboratories). […]
(§5) For western blot analysis, samples were loaded onto homemade or precast 10% polyacrylamide gels (Invitrogen). […] Specific binding of antibodies was detected using appropriate peroxidase-conjugated secondary antibodies (Jackson ImmunoResearch Laboratories #115-035-003 and 115-035-045), and was visualized by enhanced chemiluminescence detection (Western Lightning® Plus-ECL, PerkinElmer). […]

ERK = assay: Western blot of serum-induced ERK phosphorylation in SKOV3 cells; assay type: cell-based, human; settings: SKOV3, KI 5 μM or 10 μM 1 h prior to 15 min 10% serum stimulation
Procedure: as §4, §5

p38MAPK = assay: Western blot of serum-induced p38MAPK phosphorylation in SKOV3 cells; assay type: cell-based, human; settings: SKOV3, KI 5 μM or 10 μM 1 h prior to 15 min 10% serum stimulation
Procedure: as §4, §5

NF-κB = assay: Western blot of serum-induced NF-κB phosphorylation in SKOV3 cells; assay type: cell-based, human; settings: SKOV3, KI 5 μM or 10 μM 1 h prior to 15 min 10% serum stimulation
Procedure: as §4, §5

JNK = assay: Western blot of JNK phosphorylation in SKOV3 cells; assay type: cell-based, human; settings: SKOV3, KI 5 μM or 10 μM 1 h prior to 15 min 10% serum stimulation; not significant
Procedure: as §4, §5

SMILES	tumor growth inhibition (TGI) (high-MAP3K8 PDX model [1])	tumor growth (high-MAP3K8 PDX model [1])	tumor growth inhibition (TGI) (low-MAP3K8 PDX model)	tumor growth (low-MAP3K8 PDX model)	lung metastatic incidence (high-MAP3K8 PDX model [2])	total number of cells (SKOV3 cells [3]; 5 μM KI vs untreated)	cell viability (SKOV3 cells [3]; KI treatment)	cell doubling time (SKOV3 cells [3]; KI treatment vs untreated)	percentage of cells in G1 phase (SKOV3 cells [4])	cell migration (SKOV3 cells [5])	cell invasion (SKOV3 cells [6])	serum-induced MEK phosphorylation (MEK)	serum-induced ERK phosphorylation (ERK)	serum-induced p38MAPK phosphorylation (p38MAPK)	serum-induced NF-κB phosphorylation (NF-κB)	JNK phosphorylation (JNK)
Cn1cnc2c(F)c(Nc3ccc(Br)cc3Cl)c(C(=O)NOCCO)cc21 [AZD6244]	~60%	markedly reduced tumor growth	22%	much less impact	significantly reduced	–	–	–	–	–	–	–	–	–	–	–
Cn1cnc2c(F)c(Nc3ccc(Br)cc3F)c(C(=O)NOCCO)cc21 [MEK162]	~60%	markedly reduced tumor growth	22%	much less impact	significantly reduced	–	–	–	–	–	–	–	–	–	–	–
N#Cc1cnc2cnc(NCc3cccnc3)cc2c1Nc1ccc(F)c(Cl)c1 [KI]	–	–	–	–	–	reduced the total number of cells	without any impact on cell viability	increase in cell doubling time	significant increase	significantly reduced cell migration	inhibited	significantly reduced	significantly reduced	not affected	not affected	slight decrease
